# Experiments:
# Type in all cases: cell-based
# P. aeruginosa (PA) = test: MIC by microdilution, 36 clinical and laboratory strains with known efflux phenotype
# Experimental: (§1) MICs of 36 clinical and laboratory strains of PA with known efflux phenotype are measured by microdilution in cation-adjusted Muller-Hinton broth (CA-MHB) or in RPMI medium (commonly used in eukaryotic cell culture). Phe-Arg-β-naphthylamide (PaβN, 50 mg/L) and EGTA 5 mM are used to inhibit efflux pumps and alter OM integrity, respectively. P. aeruginosa strain ATCC PAO1 is used as reference. PA12 is a clinical strain overexpressing the 4 main efflux systems (MexAB, MexCD, MexEF, MexXY), PA403 is a laboratory strain deleted in the genes coding for the 4 efflux systems. A series of reference strains or of clinical isolates for which the expression of genes coding for efflux pumps is known is also used for MICs determinations. MICs are measured by microdilution in MH broth or in RPMI medium (used for eukaryotic cells culture) supplemented with 10% of fetal calf serum, or in MH broth supplemented by increasing amounts of serum. EGTA (5 mM) was used as a chelating agent (disrupting outer membrane integrity) and PaβN (50 mg/L) as an unspecific efflux inhibitor.
# P. aeruginosa PA403 = test: MIC by microdilution with PaβN or EGTA, efflux-deleted laboratory strain
# Experimental: as §1, with “The compounds described herein are poor substrates of efflux pumps expressed in P. aeruginosa (PA). MICs of” for “MICs of”
# P. aeruginosa PA12 = test: MIC by microdilution with PaβN or EGTA, clinical isolate overexpressing efflux pumps
# Experimental: as §1
smiles,measurement,setting,value
"CC[C@H]1OC(=O)[C@@](C)(F)C(=O)[C@H](C)[C@@H](O[C@@H]2O[C@H](C)C[C@H](N(C)C)[C@H]2O)[C@](C)(OC)C[C@@H](C)C(=O)[C@H](C)[C@H]2N(CCCCn3cc(-c4cccc(N)c4)nn3)C(=O)O[C@]12C [CEM-101, solithromycin]",difference in MIC in the presence of efflux pump inhibitors,"P. aeruginosa (PA); compared with the other macrolides, Table 2 strains",smaller difference
same,MIC,"P. aeruginosa (PA); strain 1, efflux AB+, MHB",128 µg/mL
same,MIC,"P. aeruginosa (PA); strain 1, efflux AB+, RPMI",2 µg/mL
same,MIC,"P. aeruginosa (PA); strain 2, efflux CD+, MHB",256 µg/mL
same,MIC,"P. aeruginosa (PA); strain 2, efflux CD+, RPMI",8 µg/mL
same,MIC,"P. aeruginosa (PA); strain 3, efflux EF+, MHB",8 µg/mL
same,MIC,"P. aeruginosa (PA); strain 3, efflux EF+, RPMI",1 µg/mL
same,MIC,"P. aeruginosa (PA); strain 4, efflux XY+, MHB",128 µg/mL
same,MIC,"P. aeruginosa (PA); strain 4, efflux XY+, RPMI",4 µg/mL
same,MIC,"P. aeruginosa (PA); strain 11, efflux AB + CD+, MHB",16 µg/mL
same,MIC,"P. aeruginosa (PA); strain 11, efflux AB + CD+, RPMI",2 µg/mL
same,MIC,"P. aeruginosa (PA); strain 12, efflux AB + CD + EF + XY+, MHB",128 µg/mL
same,MIC,"P. aeruginosa (PA); strain 12, efflux AB + CD + EF + XY+, RPMI",4 µg/mL
same,MIC,"P. aeruginosa (PA); strain 16, efflux AB + XY+, MHB",32 µg/mL
same,MIC,"P. aeruginosa (PA); strain 16, efflux AB + XY+, RPMI",4 µg/mL
same,MIC,"P. aeruginosa (PA); strain 21, efflux AB+, MHB",128 µg/mL
same,MIC,"P. aeruginosa (PA); strain 21, efflux AB+, RPMI",4 µg/mL
same,MIC,"P. aeruginosa (PA); strain 22, efflux XY+, MHB",64 µg/mL
same,MIC,"P. aeruginosa (PA); strain 22, efflux XY+, RPMI",4 µg/mL
same,MIC,"P. aeruginosa (PA); strain 40, efflux EF+, MHB",32 µg/mL
same,MIC,"P. aeruginosa (PA); strain 40, efflux EF+, RPMI",4 µg/mL
same,MIC,"P. aeruginosa (PA); strain 41, efflux CD+, MHB",256 µg/mL
same,MIC,"P. aeruginosa (PA); strain 41, efflux CD+, RPMI",4 µg/mL
same,MIC,"P. aeruginosa (PA); strain 48, efflux CD + EF + XY+, MHB",128 µg/mL
same,MIC,"P. aeruginosa (PA); strain 48, efflux CD + EF + XY+, RPMI",4 µg/mL
same,MIC,"P. aeruginosa (PA); strain 49, efflux CD + EF + XY+, MHB",128 µg/mL
same,MIC,"P. aeruginosa (PA); strain 49, efflux CD + EF + XY+, RPMI",4 µg/mL
same,MIC,"P. aeruginosa (PA); strain 63, efflux AB + EF + XY+, MHB",64 µg/mL
same,MIC,"P. aeruginosa (PA); strain 63, efflux AB + EF + XY+, RPMI",4 µg/mL
same,MIC,"P. aeruginosa (PA); strain 68, efflux AB + XY+, MHB",64 µg/mL
same,MIC,"P. aeruginosa (PA); strain 68, efflux AB + XY+, RPMI",4 µg/mL
same,MIC,"P. aeruginosa (PA); strain 133, efflux EF + XY+, MHB",64 µg/mL
same,MIC,"P. aeruginosa (PA); strain 133, efflux EF + XY+, RPMI",4 µg/mL
same,MIC,"P. aeruginosa (PA); strain 156, efflux EF + XY+, MHB",64 µg/mL
same,MIC,"P. aeruginosa (PA); strain 156, efflux EF + XY+, RPMI",2 µg/mL
same,MIC,"P. aeruginosa (PA); strain 168B, efflux CD + XY+, MHB",128 µg/mL
same,MIC,"P. aeruginosa (PA); strain 168B, efflux CD + XY+, RPMI",4 µg/mL
same,MIC,"P. aeruginosa (PA); strain 207, efflux AB + EF + XY+, MHB",32 µg/mL
same,MIC,"P. aeruginosa (PA); strain 207, efflux AB + EF + XY+, RPMI",4 µg/mL
same,MIC,"P. aeruginosa (PA); strain 266B, efflux AB + CD+, MHB",256 µg/mL
same,MIC,"P. aeruginosa (PA); strain 266B, efflux AB + CD+, RPMI",4 µg/mL
same,MIC,"P. aeruginosa (PA); strain 333A, efflux AB + EF+, MHB",128 µg/mL
same,MIC,"P. aeruginosa (PA); strain 333A, efflux AB + EF+, RPMI",2 µg/mL
same,MIC,"P. aeruginosa (PA); strain 335, efflux AB + EF+, MHB",128 µg/mL
same,MIC,"P. aeruginosa (PA); strain 335, efflux AB + EF+, RPMI",2 µg/mL
same,MIC,"P. aeruginosa (PA); strain 391, efflux EF−, MHB",32 µg/mL
same,MIC,"P. aeruginosa (PA); strain 391, efflux EF−, RPMI",2 µg/mL
same,MIC,"P. aeruginosa (PA); strain 392, efflux CD−, MHB",16 µg/mL
same,MIC,"P. aeruginosa (PA); strain 392, efflux CD−, RPMI",1 µg/mL
same,MIC,"P. aeruginosa (PA); strain 394, efflux XY−, MHB",32 µg/mL
same,MIC,"P. aeruginosa (PA); strain 394, efflux XY−, RPMI",4 µg/mL
same,MIC,"P. aeruginosa (PA); strain 395, efflux HI−, MHB",64 µg/mL
same,MIC,"P. aeruginosa (PA); strain 395, efflux HI−, RPMI",2 µg/mL
same,MIC,"P. aeruginosa (PA); strain 396, ompH−, MHB",8 µg/mL
same,MIC,"P. aeruginosa (PA); strain 396, ompH−, RPMI",2 µg/mL
same,MIC,"P. aeruginosa (PA); strain 397, efflux AB−, MHB",2 µg/mL
same,MIC,"P. aeruginosa (PA); strain 397, efflux AB−, RPMI",1 µg/mL
same,MIC,"P. aeruginosa (PA); strain 398, efflux CD−, MHB",4 µg/mL
same,MIC,"P. aeruginosa (PA); strain 398, efflux CD−, RPMI",2 µg/mL
same,MIC,"P. aeruginosa (PA); strain 399, efflux AB − EF−, MHB",8 µg/mL
same,MIC,"P. aeruginosa (PA); strain 399, efflux AB − EF−, RPMI",1 µg/mL
same,MIC,"P. aeruginosa (PA); strain 400, efflux XY−, MHB",4 µg/mL
same,MIC,"P. aeruginosa (PA); strain 400, efflux XY−, RPMI",1 µg/mL
same,MIC,"P. aeruginosa (PA); strain 401, ompH−, MHB",2 µg/mL
same,MIC,"P. aeruginosa (PA); strain 401, ompH−, RPMI",2 µg/mL
same,MIC,"P. aeruginosa (PA); strain 403, efflux AB − CD − EF − XY−, MHB",4 µg/mL
same,MIC,"P. aeruginosa (PA); strain 403, efflux AB − CD − EF − XY−, RPMI",1 µg/mL
same,MIC,"P. aeruginosa (PA); strain 405, efflux AB − CD − EF − XY−, MHB",4 µg/mL
same,MIC,"P. aeruginosa (PA); strain 405, efflux AB − CD − EF − XY−, RPMI",1 µg/mL
same,MIC,"P. aeruginosa (PA); strain 434, efflux AB + CD + XY+, MHB",128 µg/mL
same,MIC,"P. aeruginosa (PA); strain 434, efflux AB + CD + XY+, RPMI",8 µg/mL
same,MIC,"P. aeruginosa (PA); strain PAO1, REFERENCE, MHB",128 µg/mL
same,MIC,"P. aeruginosa (PA); strain PAO1, REFERENCE, RPMI",4 µg/mL
same,MIC,"P. aeruginosa PA403; P403, CA-MHB, EGTA 5 mM",1 µg/mL
same,MIC,"P. aeruginosa PA403; P403, CA-MHB, control conditions (CT)",4 µg/mL
same,MIC,"P. aeruginosa PA403; P403, RPMI, EGTA 5 mM",0.25 µg/mL
same,MIC,"P. aeruginosa PA403; P403, RPMI, PaβN 50 mg/L",2 µg/mL
same,MIC,"P. aeruginosa PA403; P403, RPMI, control conditions (CT)",1 µg/mL
same,MIC,"P. aeruginosa PA12; PA12, CA-MHB, EGTA 5 mM",16 µg/mL
same,MIC,"P. aeruginosa PA12; PA12, CA-MHB, PaβN 50 mg/L",4 µg/mL
same,MIC,"P. aeruginosa PA12; PA12, CA-MHB, control conditions (CT)",32 µg/mL
same,MIC,"P. aeruginosa PA12; PA12, RPMI, EGTA 5 mM",1 µg/mL
same,MIC,"P. aeruginosa PA12; PA12, RPMI, PaβN 50 mg/L",4 µg/mL
same,MIC,"P. aeruginosa PA12; PA12, RPMI, control conditions (CT)",4 µg/mL
